Experiments:
Assay type in all cases: in vivo
[1] = system: broadleaf signalgrass (Brachiaria decumbens); test: Test B pre-/postemergence; design: key: 0 is no effect; 10 is complete control
In short: (§1)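 Compounds in a surfactant-containing, non-phytotoxic solvent blend are applied to freshly planted seed (preemergence) and, concurrently, to seedlings of 2 to 18 cm at 1–4 leaves (postemergence). Plants stay in the greenhouse twelve to sixteen days and are then scored visually from 0 (no effect) to 10 (complete control).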

[2] = system: giant foxtail (Setaria faberii); test: Test B pre-/postemergence; design: key: 0 is no effect; 10 is complete control
In short: as §1

wild oat (Avena fatua) = test: Test B pre-/postemergence; design: key: 0 is no effect; 10 is complete control
In short: as §1

[3] = system: bedstraw (Galium aparine); test: Test B pre-/postemergence; design: key: 0 is no effect; 10 is complete control
In short: as §1

[4] = system: momingglory (Ipomoea hederacea); test: Test B pre-/postemergence; design: key: 0 is no effect; 10 is complete control
In short: as §1

[5] = system: barnyardgrass (Echinochloa crus-galli); test: Test A pre-/postemergence; details: 0 to 10 scale
Experimental: (§2) Seeds of barnyardgrass (Echinochloa crus-galli), crabgrass (Digitaria spp.), morningglory (Ipomoea spp.), and velvetleaf (Abutilon theophrasti) were planted into a sandy loam soil and treated preemergence by soil drench with test chemicals formulated in a non-phytotoxic solvent mixture which includes a surfactant. At the same time, these crop and weed species were also treated postemergence sprayed to runoff, with test chemicals formulated in the same manner. Plants ranged in height from two to eighteen cm and were in the one to two leaf stage for the postemergence treatment. Treated plants and untreated controls were maintained in a greenhouse for approximately eleven days, after which all treated plants were compared to untreated controls and visually evaluated for injury. Plant response ratings, summarized in Table A, are based on a 0 to 10 scale where 0 is no effect and 10 is complete control. A dash (−) response means no test results.

[6] = system: morningglory (Ipomoea spp.); test: Test A pre-/postemergence; details: 0 to 10 scale
Experimental: as §2

[7] = system: velvetleaf (Abutilon theophrasti); test: Test A pre-/postemergence; details: 0 to 10 scale
Experimental: as §2

[8] = system: crabgrass (Digitaria spp.); test: Test A pre-/postemergence; details: 0 to 10 scale
Experimental: as §2

[9] = system: velvetleaf (Abutilon theophrasti); test: Test C; design: key: 0 was no effect; 100 was complete control
[10] = system: cocklebur (Xanthium strumarium); test: Test C; design: key: 0 was no effect; 100 was complete control
corn (Zea mays) = test: Test C; design: key: 0 was no effect; 100 was complete control
[11] = system: common ragweed (Ambrosia elatior); test: Test C
[12] = system: surinam grass (Brachiaria decumbens); test: Test C
[13] = system: cotton (Gossypium hirsutum); test: Test C
[14] = system: giant foxtail (Setaria faberii); test: Test C; design: key: 0 was no effect; 100 was complete control
[15] = system: ladysthumb smartweed (Polygonum persicaria); test: Test C
[16] = PRE SOIL DRENCH, Rate 2000 g/ha
[17] = postemergence SPRAYED TO RUNOFF, Rate 1000 g/ha

Cc1cnc(-c2ccc(C(F)(F)F)cc2)nc1Cn1cc(I)cn1 [Compound 12]
9: Plant response rating, B. signalgrass ([1]; Rate 500 g/ha, Preemergence) | Plant response rating, Giant foxtail ([2]; Rate 250 g/ha, Preemergence) | Plant response rating, Giant foxtail ([2]; Rate 500 g/ha, Preemergence) | Plant response rating, Bedstraw ([3]; Rate 125 g/ha, Postemergence) | Plant response rating, Morningglory ([4]; Rate 62 g/ha, Postemergence) | Plant response rating, Morningglory ([4]; Rate 125 g/ha, Postemergence) | Plant response rating, Morningglory ([4]; Rate 250 g/ha, Postemergence) | Plant response rating, Morningglory ([4]; Rate 500 g/ha, Postemergence) | Plant response rating, Crabgrass [8, 16]
4: Plant response rating, B. signalgrass ([1]; Rate 62 g/ha, Postemergence) | Plant response rating, Giant foxtail ([2]; Rate 500 g/ha, Postemergence) | Plant response rating, Wild oats (wild oat (Avena fatua); Rate 250 g/ha, Postemergence) | Plant response rating, Wild oats (wild oat (Avena fatua); Rate 250 g/ha, Preemergence) | Plant response rating, Wild oats (wild oat (Avena fatua); Rate 500 g/ha, Preemergence) | Bedstraw plant response rating ([3]; Rate 125 g/ha, Preemergence) | Plant response rating, Bedstraw ([3]; Rate 250 g/ha, Preemergence) | Morningglory plant response rating ([4]; Rate 62 g/ha, Preemergence)
8: B. signalgrass plant response rating ([1]; Rate 125 g/ha, Preemergence) | Plant response rating, B. signalgrass ([1]; Rate 250 g/ha, Preemergence) | Plant response rating, Bedstraw ([3]; Rate 500 g/ha, Preemergence) | Plant response rating, Crabgrass [8, 17]
5: Plant response rating, B. signalgrass ([1]; Rate 125 g/ha, Postemergence) | Giant foxtail plant response rating ([2]; Rate 62 g/ha, Preemergence) | Plant response rating, Wild oats (wild oat (Avena fatua); Rate 500 g/ha, Postemergence) | Plant response rating, Barnyardgrass [5, 17] | Plant response rating, Velvetleaf [7, 16]
1: Wild oats plant response rating (wild oat (Avena fatua); Rate 62 g/ha, Preemergence)
7: Plant response rating, B. signalgrass ([1]; Rate 250 g/ha, Postemergence) | Plant response rating, B. signalgrass ([1]; Rate 500 g/ha, Postemergence) | Giant foxtail plant response rating ([2]; Rate 125 g/ha, Preemergence) | Plant response rating, Bedstraw ([3]; Rate 62 g/ha, Postemergence) | Plant response rating, Barnyardgrass [5, 16]
6: Morningglory plant response rating ([4]; Rate 125 g/ha, Preemergence) | Plant response rating, Velvetleaf [7, 17]
10: Plant response rating, Bedstraw ([3]; Rate 250 g/ha, Postemergence) | Plant response rating, Bedstraw ([3]; Rate 500 g/ha, Postemergence) | Plant response rating, Morningglory ([4]; Rate 250 g/ha, Preemergence) | Plant response rating, Morningglory ([4]; Rate 500 g/ha, Preemergence)
2: Plant response rating, Giant foxtail ([2]; Rate 62 g/ha, Postemergence) | Wild oats plant response rating (wild oat (Avena fatua); Rate 125 g/ha, Preemergence) | Bedstraw plant response rating ([3]; Rate 62 g/ha, Preemergence) | Plant response rating, Morningglory [6, 17]
3: B. signalgrass plant response rating ([1]; Rate 62 g/ha, Preemergence) | Plant response rating, Giant foxtail ([2]; Rate 125 g/ha, Postemergence) | Plant response rating, Giant foxtail ([2]; Rate 250 g/ha, Postemergence) | Plant response rating, Wild oats (wild oat (Avena fatua); Rate 62 g/ha, Postemergence) | Plant response rating, Wild oats (wild oat (Avena fatua); Rate 125 g/ha, Postemergence) | Plant response rating, Morningglory [6, 16]

Cc1cnc(-c2ccc(C(F)(F)F)cc2)nc1Cn1ccc(C(F)(F)F)n1 [compound 9]
90: Plant response rating, Velvetleaf ([9]; POSTEMERGENCE, Rate 140 g/ha) | Plant response rating, Surinam grass ([12]; PREEMERGENCE, Rate 140 g/ha) | Plant response rating, Cotton ([13]; POSTEMERGENCE, Rate 140 g/ha) | Plant response rating, Giant foxtail ([14]; PREEMERGENCE, Rate 35 g/ha) | Plant response rating, Ladysthumb ([15]; PREEMERGENCE, Rate 140 g/ha)
75: Plant response rating, Velvetleaf ([9]; PREEMERGENCE, Rate 35 g/ha) | Plant response rating, Common ragweed ([11]; PREEMERGENCE, Rate 140 g/ha)
8: B. signalgrass plant response rating ([1]; Rate 62 g/ha, Preemergence) | Plant response rating, B. signalgrass ([1]; Rate 125 g/ha, Postemergence) | Wild oats plant response rating (wild oat (Avena fatua); Rate 125 g/ha, Preemergence) | Plant response rating, Wild oats (wild oat (Avena fatua); Rate 500 g/ha, Postemergence) | Morningglory plant response rating ([4]; Rate 62 g/ha, Preemergence)
100: Plant response rating, Velvetleaf ([9]; PREEMERGENCE, Rate 140 g/ha) | Plant response rating, Giant foxtail ([14]; PREEMERGENCE, Rate 70 g/ha) | Plant response rating, Giant foxtail ([14]; PREEMERGENCE, Rate 140 g/ha)
10: Plant response rating, Velvetleaf ([9]; POSTEMERGENCE, Rate 35 g/ha) | Plant response rating, Corn (corn (Zea mays); POSTEMERGENCE, Rate 35 g/ha) | Plant response rating, Corn (corn (Zea mays); PREEMERGENCE, Rate 140 g/ha) | Plant response rating, Common ragweed ([11]; POSTEMERGENCE, Rate 140 g/ha) | Plant response rating, B. signalgrass ([1]; Rate 250 g/ha, Preemergence) | Plant response rating, B. signalgrass ([1]; Rate 500 g/ha, Preemergence) | Giant foxtail plant response rating ([2]; Rate 62 g/ha, Preemergence) | Giant foxtail plant response rating ([2]; Rate 125 g/ha, Preemergence) | Plant response rating, Giant foxtail ([2]; Rate 250 g/ha, Preemergence) | Plant response rating, Giant foxtail ([2]; Rate 500 g/ha, Preemergence) | Plant response rating, Bedstraw ([3]; Rate 62 g/ha, Postemergence) | Plant response rating, Bedstraw ([3]; Rate 125 g/ha, Postemergence) | Plant response rating, Bedstraw ([3]; Rate 250 g/ha, Postemergence) | Plant response rating, Bedstraw ([3]; Rate 250 g/ha, Preemergence) | Plant response rating, Bedstraw ([3]; Rate 500 g/ha, Postemergence) | Plant response rating, Morningglory ([4]; Rate 62 g/ha, Postemergence) | Plant response rating, Morningglory ([4]; Rate 125 g/ha, Postemergence) | Morningglory plant response rating ([4]; Rate 125 g/ha, Preemergence) | Plant response rating, Morningglory ([4]; Rate 250 g/ha, Postemergence) | Plant response rating, Morningglory ([4]; Rate 250 g/ha, Preemergence) | Plant response rating, Morningglory ([4]; Rate 500 g/ha, Postemergence) | Plant response rating, Morningglory ([4]; Rate 500 g/ha, Preemergence) | Plant response rating, Cotton ([13]; PREEMERGENCE, Rate 35 g/ha)
7: Bedstraw plant response rating ([3]; Rate 125 g/ha, Preemergence)
85: Plant response rating, Ladysthumb ([15]; PREEMERGENCE, Rate 70 g/ha)
60: Plant response rating, Cocklebur ([10]; POSTEMERGENCE, Rate 35 g/ha)
20: Plant response rating, Surinam grass ([12]; POSTEMERGENCE, Rate 140 g/ha) | Plant response rating, Ladysthumb ([15]; POSTEMERGENCE, Rate 35 g/ha)
5: Plant response rating, Corn (corn (Zea mays); PREEMERGENCE, Rate 70 g/ha) | Plant response rating, B. signalgrass ([1]; Rate 62 g/ha, Postemergence) | Plant response rating, Giant foxtail ([2]; Rate 125 g/ha, Postemergence) | Wild oats plant response rating (wild oat (Avena fatua); Rate 62 g/ha, Preemergence) | Plant response rating, Surinam grass ([12]; POSTEMERGENCE, Rate 35 g/ha) | Plant response rating, Surinam grass ([12]; POSTEMERGENCE, Rate 70 g/ha)
30: Plant response rating, Common ragweed ([11]; POSTEMERGENCE, Rate 70 g/ha) | Plant response rating, Giant foxtail ([14]; POSTEMERGENCE, Rate 140 g/ha) | Plant response rating, Ladysthumb ([15]; POSTEMERGENCE, Rate 70 g/ha) | Plant response rating, Ladysthumb ([15]; POSTEMERGENCE, Rate 140 g/ha)
80: Plant response rating, Cocklebur ([10]; POSTEMERGENCE, Rate 70 g/ha) | Plant response rating, Cocklebur ([10]; POSTEMERGENCE, Rate 140 g/ha) | Plant response rating, Common ragweed ([11]; PREEMERGENCE, Rate 35 g/ha) | Plant response rating, Surinam grass ([12]; PREEMERGENCE, Rate 70 g/ha) | Plant response rating, Cotton ([13]; POSTEMERGENCE, Rate 70 g/ha)
6: Plant response rating, Wild oats (wild oat (Avena fatua); Rate 250 g/ha, Postemergence)
95: Plant response rating, Velvetleaf ([9]; PREEMERGENCE, Rate 70 g/ha) | Plant response rating, Common ragweed ([11]; PREEMERGENCE, Rate 70 g/ha)
50: Plant response rating, Cotton ([13]; PREEMERGENCE, Rate 140 g/ha)
70: Plant response rating, Velvetleaf ([9]; POSTEMERGENCE, Rate 70 g/ha) | Plant response rating, Cotton ([13]; POSTEMERGENCE, Rate 35 g/ha)
15: Plant response rating, Corn (corn (Zea mays); POSTEMERGENCE, Rate 70 g/ha) | Plant response rating, Corn (corn (Zea mays); POSTEMERGENCE, Rate 140 g/ha) | Plant response rating, Giant foxtail ([14]; POSTEMERGENCE, Rate 35 g/ha) | Plant response rating, Giant foxtail ([14]; POSTEMERGENCE, Rate 70 g/ha)
4: Plant response rating, Giant foxtail ([2]; Rate 62 g/ha, Postemergence) | Plant response rating, Wild oats (wild oat (Avena fatua); Rate 125 g/ha, Postemergence) | Bedstraw plant response rating ([3]; Rate 62 g/ha, Preemergence)
9: B. signalgrass plant response rating ([1]; Rate 125 g/ha, Preemergence) | Plant response rating, B. signalgrass ([1]; Rate 250 g/ha, Postemergence) | Plant response rating, B. signalgrass ([1]; Rate 500 g/ha, Postemergence) | Plant response rating, Giant foxtail ([2]; Rate 250 g/ha, Postemergence) | Plant response rating, Giant foxtail ([2]; Rate 500 g/ha, Postemergence) | Plant response rating, Wild oats (wild oat (Avena fatua); Rate 250 g/ha, Preemergence) | Plant response rating, Wild oats (wild oat (Avena fatua); Rate 500 g/ha, Preemergence) | Plant response rating, Bedstraw ([3]; Rate 500 g/ha, Preemergence)
0: Plant response rating, Cocklebur ([10]; PREEMERGENCE, Rate 35 g/ha) | Plant response rating, Cocklebur ([10]; PREEMERGENCE, Rate 70 g/ha) | Plant response rating, Cocklebur ([10]; PREEMERGENCE, Rate 140 g/ha) | Plant response rating, Corn (corn (Zea mays); PREEMERGENCE, Rate 35 g/ha)
3: Plant response rating, Wild oats (wild oat (Avena fatua); Rate 62 g/ha, Postemergence)
35: Plant response rating, Surinam grass ([12]; PREEMERGENCE, Rate 35 g/ha) | Plant response rating, Cotton ([13]; PREEMERGENCE, Rate 70 g/ha) | Plant response rating, Ladysthumb ([15]; PREEMERGENCE, Rate 35 g/ha)
